Test results reported in patent US5628328A, “Method for measuring muscle mass” (priority 1995, dated 1997).

Assays:
[1] = in vivo
[2] = Safety and excretion of administered D3-3-methylhistidine; details: small quantities administered
[3] = in vivo; remark: listed apart in the source
Procedure: The diversity of models between cattle, dogs and humans and sheep and pigs reflects differences in known physiology. In each species the tracer is injected into compartment 1 which, based on size (volume and mass), is similar to plasma and extracellular water space. Compartment 1 was the sampling compartment and the compartment from which the steady state calculations were initiated. All models for each species can be resolved by sampling only plasma, except in sheep--the model in FIG. 4 required the sampling of plasma and urine. However, the sheep model can be resolved from plasma kinetics of 3-methylhistidine if the rate of exit from compartment 1 is fixed. From the steady state calculations the de novo production of 3-methylhistidine was obtained into compartment 3 for humans, cattle and dogs and into compartment 2 for sheep and pigs. The de novo production of 3-methylhistidine could be placed as an entry into compartment 2 and an identical rate calculated. The compartment identity of compartment 2 and 3 is intracellular pools of 3-methylhistidine. The metabolic form of 3-methylhistidine in these compartments may not be identical nor is the identity of compartment 2 or 3 for one species the same identity for another species (i.e., cattle vs. sheep). The models also depict differences in the route by which 3-methylhistidine exits the system. […]

[4] = parameters: species or system human; details: in vivo
From the text: Normal volunteers with no evidence or history of diabetes mellitus or of cardiac, liver, renal or pulmonary diseases were studied. The subjects consisted of 3 males and 1 female, ranging in age from 31 to 37 years, in body weight from 47 to 92 kg, and in body mass index (BMI) from 19.2 to 25.5. The purpose and possible risks of the study were explained to all subjects, and their voluntary written consent was obtained. The study protocol was approved by the Committee for the Protection of Human Subjects of the Institutional Review Board at Vanderbilt University School of Medicine. All studies were performed at the Clinical Research Center (CRC). Subjects were placed on balanced weight-maintenance diets for at least one week before the start of the study. Meat was excluded from the subjects' diets for three days before the study and during the study.
All studies were performed after a 10-12 hour overnight fast. On the morning of the experiment (6.30 to 7.00 hours), an 18-gauge Angiocatheter™ (Benton Dickinson, Sandy, Utah) was placed in a superficial hand vein of the nondominant arm for blood sampling. The hand was heated to 55° C. to ensure complete arterialization (Abumrad, N.N. et al., "Use of a heated superficial hand vein as an alternative site for the measurement of amino acid concentrations and for the study of glucose and alanine kinetics in man," Metabolism (1981) 30:936-940). In addition, a 16-gauge angiocatheter was inserted into the contralateral forearm vein for the infusion of L-3-[methyl-^2 H3 ]-histidine (MSD Isotopes, Montreal, Canada). Finally, another catheter was threaded retrograde into the brachial vein of the dominant arm and used for sampling of the forearm tissue.
Each study was four days in duration. Starting at t=0 (8.00 hours), subjects were administered a bolus infusion of L-3-[methyl^2 H3 ]-histidine (D3 -3-methylhistidine) at 0.13 μmol/kg into the forearm vein of the dominant arm. The infusate was passed through a Millex-GS sterilizing filter (0.22 μm; Millipore Products Divisions, Bedford, Mass.) before the infusion. Blood samples were obtained from the superficial hand vein and from the deep forearm vein at 0, 1, 2, 5, 10, 15, 30, 45, 90, 150, 210, 270, 330, and 720 min. postinjection. During this time, the subjects were required to stay at the Clinical Research Center, although they were allowed to ambulate freely within their rooms. Free access to food and drink was allowed after the 330-min sample. After 720 min, the catheters were removed and the patients were allowed to go home. For the following three days, the subjects returned to the CRC each morning before eating for further blood sampling by percutaneous venous puncture at 1,440, 2,880, and 4,320 min postinjection. Urine was collected over 24 hour periods the day before and for three days after tracer infusion.
Blood was collected in heparinized syringes, transferred to tubes containing Na2 EDTA (15 mg/tube), and centrifuged. The plasma obtained was immediately placed on ice. An aliquot of the plasma was processed for determination of 3-methylhistidine concentration as well as the L-3-[methyl-^2 H3 ]-histidine:3-methylhistidine isotope enrichment. The remainder of the plasma was frozen at -70° C. The urine obtained was processed for the determination of creatinine both as a measure of the completeness of the collection (Pencharz, P. B. et al., "The effect of an energy-restricted diet on the protein metabolism of obese adolescents: nitrogen-balance and whole-body nitrogen turnover," Clin. Sci. (1980) 59:13-18), and for the estimation of lean body mass (Blackburn, G. L. et al., "Nutritional and metabolic assessment of hospitalized patients," J. Parenter. Enteral. Nutr. (1977) 1:11-22). […]

[5] = rat; cited from earlier work
[6] = adult human; cited from earlier work

## [2H]C([2H])([2H])n1cnc(C[C@H](N)C(=O)O)c1 [D3-3-methylhistidine, 3-[^2 H3-methyl]-methylhistidine]
[1]
  Urinary excretion: quantitatively excreted in urine
[2]
  Toxicity: non-toxic
[3]
  Exponential decay curve of tracer: rapid decay over the first 2-3 hours, followed by a slower decay through 12 hours, and a steady state decay over the remainder of the study
[4]
  Decay of D3-3-methylhistidine:3-methylhistidine ratio in plasma: rapid decrease in the D3- 3-methylhistidine:3-methylhistidine ratio during the first 5 hours followed by a slow linear (semilog plot) decay over the three days of blood sampling

## N-acetyl-3-methylhistidine
[5]
  Form excreted in urine: major form excreted in the rat
[6]
  Share of daily 3-methylhistidine excreted: less than 5%
